Measured values: patent publication US7671039B2 (Glucan Corporation, priority 2004, dated 2010)
Marks after values point to notes of the source that are not given here.

Tests used:
[1] = system: ddY female mice with ovary extraction; assay: Histological indices of trabecular and cortical bone of thigh in ovary-extracted mice; type: in vivo; details: FOSA group: Fosamax 10 mg/kg oral, 4 weeks
Source text: (§1) For histological analysis of experimental animals, the left thigh of each mouse is separated to fix in 10% neutral buffer formalin (NBF) solution, and then delimed during 5 days at delime solution [24.4% formic acid, […]] (the mixed delime solution is exchanged each day one times during 3 days). And then it is fixed to paraffin and then made fraction ([…]) and dyed with hematoxylineosin.
Body weight, weight of both thigh, histological change including trabecular bone volume (TBV) % and Cortical bone thickness (Cbt) is analyzed. Also, histomorphometric changes of the trochoid bone of left thigh are observed. All experimental result of followings are shown with means±standard deviation. A statistical analysis is carried out by using SPSS For Windows (Release 6.1.3., SPSS Inc, USA) and Mann-Whitney U-Wilcoxon Rank Sum W test(M-W test).
TBV is calculated by using a Auto Image analysis (analySIS Image Processing; SIS, Germany) under 100 magnifications on a microscope (Zeiss, Germany) for regular size of trabecular bone at the trochoid bone of […] (excluding a growth plate). TBV is calculated with (%) unit.
A trabecular bone thickness (Tbt), a number of trabecular bone (Tbn), and a trabecular bone length (Tbl) are calculated by using a Auto Image analysis (analySIS Image Processing; SIS, Germany) under 100 magnifications on a microscope (Zeiss, Germany) for regular size at the trochoid bone of left thigh (excluding a growth plate). Tbt and Tbl are calculated with μm unit, and Tbn is calculated with a number of trabecular bone/all section of the trochoid bone section. Tbt and Tbl is calculated at trabecular bone that is most developed in a regular size of the trochoid bone section.
Cbt is measured at the trochlea neck of thigh and calculated by using a Auto Image analysis (analySIS Image Processing; SIS, Genmany) under 200 magnifications on a microscope (Zeiss, Germany) at prepared histological sample.

[2] = FOSA group: Fosamax 10 mg/kg oral; I: body weight after sacrifice − after administration
Experimental: 25 ddY female mice (age of 6 weeks, SLC, Japan) are used after adaptation during 7 days. The above animals are grouped each 5 and bred in a cage made of polycarbonate under the condition of temperature of 20˜25° C. and humidity of 30˜35%. A cycle of light and darkness is controlled to 12 hours: 12 hours. Feed stuff (Samyang Co., Korea) and water is fed freely. For 20 mice, the both ovary is taken out (ovary extraction : disclosing the both ovary, and then removing all of the both ovary, and then suturing with the same method), and for 5 mice, only sham surgical operation is carried out (sham surgical operation disclosing the both ovary by cutting (3 cm) a skin and an abdominal muscle, and then closing using a skin suturing technique). For the purpose of therapeutic research, a treatment is started after 4 weeks of the ovary extraction, each sample is administrated during 4 weeks.
All sample is stored at a refrigerate (−10° C.) to prevent from a moisture and light. […]
Change of body weight and increasing part is calculated after immediately surgical operation, after 4 weeks of surgical operation, after administration, and each week one times during experiment period. […] Also, an increasing part of body weight during adapting period (Increasing part I) and administrating period (Increasing part II) is calculated as followings. […]

[3] = system: ddY female mice with ovary extraction; assay: Weight of bone of both thighs in ovary-extracted mice; type: in vivo; details: wet weight, FOSA group: Fosamax 10 mg/kg oral, 4 weeks
Experimental: After sacrifice, a weight of bone of both thighs is calculated with g unit. To reduce an error arising from a difference of individual body weight, a weight of bone is calculated with relative weight as following equation. Weight of bone=[(absolute weight of bone/body weight at sacrifice)×100]

[4] = system: ddY female mice with ovary extraction; assay: Histomorphometric changes of left thigh, Hematoxylin-Eosin dyeing; type: in vivo
Experimental: as §1
A histomorphometric change of left thigh is analyzed by dyeing with Hematoxylin-Eosin.

SMILES: NCCCC(O)(P(=O)(O)O)P(=O)(O)O [FOSA, sodium alendronate]
- Tbn number of trabecular bone ([1]; control 3.40 ± 1.14): 15.20 ± 2.77
- Tbt(μm) trabecular bone thickness ([1]; control 66.40 ± 11.70): 93.60 ± 9.56 μm
- Cbt(μm) Cortical bone thickness ([1]; control 99.20 ± 20.46): 102.50 ± 22.29 μm
- Tbl(μm) trabecular bone length ([1]; control 524.40 ± 176.78): 759.40 ± 89.17*^,## μm
- TBV (%) trabecular bone volume ([1]; n = 5, control 20.23 ± 1.72, sham 47.31 ± 5.95): 35.13 ± 4.28%
- Increasing part II of body weight [2]: 3.26 ± 2.73
- Absolute weight of bone [3]: 0.075 ± 0.006 g
- histomorphometric changes of trabecular bone of left thigh (FIG. 3) ([4]; Fosamax and beta-glucan groups compared with control group, width or number lower than sham group): many an extended trabecular bone
- histomorphometric changes of cortical bone of left thigh (FIG. 4) ([4]; Fosamax group, 10 mg/kg oral, 4 weeks): Some increased or similar width and histomorphometric property comparing with control group
